Experimental data from patent US20230159453A1 (COCRYSTAL PHARMA, INC., priority 2020, published 2023).
Where “and” joins values, the source holds several entries; their conditions need not be identical. Equal values may be shown once.

What follows are molecules tested against SARS2 protease (Severe acute respiratory syndrome coronavirus 2, UniProt P0DTD1) (assay: SARS-CoV-2 protease inhibition assay (SARS2 FRET protease assay)). Conditions: SARS-CoV-2 protease 25 nM, FRET, peptide substrate 1.3 μM, 30 minutes at 30° C., compounds 20 μM to 1.0 nM; read-out: IC50.
Assay type: biochemical
Work on `CC(C)C[C@H](NC(=O)OC1(Cc2ccccc2)CCC1)C(=O)N[C@H](C=O)C[C@@H]1CCNC1=O` [Compound C56, 1-benzylcyclobutyl ((S)-4-methyl-1-oxo-1-(((S)-1-oxo-3-((S)-2-oxopyrrolidin-3-yl)propan-2-yl)amino)pentan-2-yl)carbamate] yielded an IC50 of 600 nM.
In the case of `CCCCCCOC(=O)N[C@@H](CC1CCCCC1)C(=O)N[C@H](C=O)CCC(=O)N1CCOc2ccccc2C1` [Compound C26, Hexyl ((S)-3-cyclohexyl-1-(((S)-5-(2,3-dihydrobenzo[f][1,4]oxazepin-4(5H)-yl)-1,5-dioxopentan-2-yl)amino)-1-oxopropan-2-yl)carbamate], the IC50 is reported as > 200000 nM.
In the case of `CS(=O)(=O)N1CCC2(CC1)CC(C[C@@H](C=O)NC(=O)[C@H](CC1CCCCC1)NC(=O)OCc1cccc(Cl)c1)C(=O)N2` (stereo partly drawn) [Compound C178, 3-Chlorobenzyl ((2S)-3-cyclohexyl-1-(((2S)-1-(8-(methylsulfonyl)-2-oxo-1,8-diazaspiro[4.5]decan-3-yl)-3-oxopropan-2-yl)amino)-1-oxopropan-2-yl)carbamate], the IC50 is reported as 71 nM.
`CC(C)C[C@H](NC(=O)N(Cc1ccccc1)C1CCN(C(=O)OC(C)(C)C)CC1)C(=O)N[C@H](C=O)C[C@@H]1CCNC1=O` [Compound C37, Tert-butyl 4-(1-benzyl-3-((S)-4-methyl-1-oxo-1-(((S)-1-oxo-3-((S)-2-oxopyrrolidin-3-yl)propan-2-yl)amino)pentan-2-yl)ureido)piperidine-1-carboxylate] was tested, and the IC50 was 137 nM and 262 nM.
For `CC1(C)CC(CC(NC(=O)[C@H](CC2CCCCC2)NC(=O)OCc2cccc(Cl)c2)C(=O)C(=O)NC2CC2)C(=O)N1` (stereo partly drawn) [Compound C244, 3-Chlorobenzyl ((2S)-3-cyclohexyl-1-((4-(cyclopropylamino)-1-(5,5-dimethyl-2-oxopyrrolidin-3-yl)-3,4-dioxobutan-2-yl)amino)-1-oxopropan-2-yl) carbamate], the IC50 was 1730 nM.
`CCOP(=O)(OCC)C(O)C(CC1CC2(CCN(C(C)=O)CC2)NC1=O)NC(=O)[C@H](CC1CCCCC1)NC(=O)c1cc2ccccc2[nH]1` (stereo partly drawn) [Compound C81, Diethyl (3-(8-acetyl-2-oxo-1,8-diazaspiro[4.5]decan-3-yl)-2-((S)-3-cyclohexyl-2-(1H-indole-2-carboxamido)propanamido)-1-hydroxypropyl)phosphonate] showed an IC50 of 200 nM.
For `CCCCCCOC(=O)N[C@@H](CC1CCCCC1)C(=O)N[C@@H](CCC(=O)N1CCOc2ccccc2C1)C(O)P(=O)(OCC)OCC` (stereo partly drawn) [Compound C7, Hexyl ((2S)-3-cyclohexyl-1-(((2S)-1-(diethoxyphosphoryl)-5-(2,3-dihydrobenzo[f][1,4]oxazepin-4(5H)-yl)-1-hydroxy-5-oxopentan-2-yl)amino)-1-oxopropan-2-yl)carbamate], the IC50 was > 200000 nM.
In the case of `CCCC[C@H](NC(=O)OC(c1ccccc1)C(C)(C)c1cccc(Cl)c1)C(=O)N[C@H](C=O)C[C@@H]1CCNC1=O` (stereo partly drawn) [Compound C157, 2-(3-Chlorophenyl)-2-methyl-1-phenylpropyl ((S)-1-oxo-1-(((S)-1-oxo-3-((S)-2-oxopyrrolidin-3-yl)propan-2-yl)amino)hexan-2-yl) carbamate], the IC50 is reported as 0.1 nM.
Work on `CC(C)C[C@H](NC(=O)OC(Cc1ccccc1)c1ccccc1)C(=O)N[C@@H](C[C@@H]1CCNC1=O)C(=O)C(=O)NCc1ccccn1` (stereo partly drawn) [Compound C68, 1,2-Diphenylethyl ((S)-1-(((S)-3,4-dioxo-1-((S)-2-oxopyrrolidin-3-yl)-4-((pyridin-2-ylmethyl)amino)butan-2-yl)amino)-4-methyl-1-oxopentan-2-yl)carbamate] yielded an IC50 of 2100 nM.
For `O=C(N[C@@H](CC1CCCCC1)C(=O)NC(CC1CC2(CCCCC2)NC1=O)C(=O)C(=O)NC1CC1)OC(Cc1cccc(Cl)c1)c1cccc(Cl)c1` (stereo partly drawn) [Compound C195, 1,2-Bis(3-chlorophenyl)ethyl ((2S)-3-cyclohexyl-1-((4-(cyclopropylamino)-3,4-dioxo-1-(2-oxo-1-azaspiro[4.5]decan-3-yl)butan-2-yl)amino)-1-oxopropan-2-yl)carbamate], the IC50 was 2010 nM.
For `CC(C)(c1cccc(Cl)c1)C(OC(=O)N[C@@H](CC1CCCCC1)C(=O)N[C@@H](C[C@@H]1CCNC1=O)C(=O)C(N)=O)c1ccccc1` (stereo partly drawn) [Compound C113, 2-(3-Chlorophenyl)-2-methyl-1-phenylpropyl ((S)-1-(((S)-4-amino-3,4-dioxo-1-((S)-2-oxopyrrolidin-3-yl)butan-2-yl)amino)-3-cyclohexyl-1-oxopropan-2-yl) carbamate], the IC50 was 133 nM.
With `CCOP(=O)(OCC)C(O)[C@H](CCC(=O)N1CCOc2ccccc2C1)NC(=O)[C@H](CC1CCCCC1)NC(=O)N1CCc2ccccc21` (stereo partly drawn) [Compound C21, Diethyl ((2S)-2-((S)-3-cyclohexyl-2-(indoline-1-carboxamido)propanamido)-5-(2,3-dihydrobenzo[f][1,4]oxazepin-4(5H)-yl)-1-hydroxy-5-oxopentyl)phosphonate] the IC50 was > 200000 nM.
With `CC1(C)CC(CC(NC(=O)[C@H](CC2CCCCC2)NC(=O)OC(Cc2cccc(Cl)c2)c2ccccc2)C(=O)C(=O)NC2CC2)C(=O)N1` (stereo partly drawn) [Compound C155, 2-(3-Chlorophenyl)-1-phenylethyl ((2S)-3-cyclohexyl-1-((4-(cyclopropylamino)-1-(5,5-dimethyl-2-oxopyrrolidin-3-yl)-3,4-dioxobutan-2-yl)amino)-1-oxopropan-2-yl) carbamate] the IC50 was 1560 nM.
`O=C(N[C@@H](CC1CCCCC1)C(=O)N[C@@H](C[C@@H]1CCNC1=O)C(=O)C(=O)NC1CC1)O[C@@H]1CCC[C@@H]1Cc1cccc(Cl)c1` [Compound C265] was tested, and the IC50 was 840 nM.
Work on `CC(C)C[C@H](NC(=O)OCCCc1ccccc1)C(=O)N[C@@H](C[C@@H]1CCNC1=O)C(=O)C(N)=O` [Compound C256] yielded an IC50 of 320 nM.
Work on `CCCCC[C@H](NC(=O)OC(c1ccccc1)C(C)(C)c1cccc(Cl)c1)C(=O)N[C@@H](C[C@@H]1CCNC1=O)C(=O)C(=O)NC1CC1` (stereo partly drawn) [Compound C289] yielded an IC50 of 370 nM.
Molecule `CC(C)(c1cccc(Cl)c1)C(OC(=O)N[C@@H](CC1CCCCC1)C(=O)N[C@@H](C[C@@H]1CCNC1=O)C(=O)C(=O)NC1CC1)c1ccc(Cl)cc1` (stereo partly drawn) [Compound C145, 2-(3-Chlorophenyl)-1-(4-chlorophenyl)-2-methylpropyl ((S)-3-cyclohexyl-1-(((S)-4-(cyclopropylamino)-3,4-dioxo-1-((S)-2-oxopyrrolidin-3-yl)butan-2-yl)amino)-1-oxopropan-2-yl) carbamate] has an IC50 of 4300 nM.
`O=C(N[C@@H](CC1CCCCC1)C(=O)N[C@@H](C[C@@H]1CCNC1=O)C(=O)C(=O)NC1CC1)O[C@H]1CCC[C@@H]1Cc1cccc(Cl)c1` [Compound C264] was tested, and the IC50 was 680 nM.
Work on `CC(C)C[C@H](NC(=O)OC(c1ccccc1)C(C)(C)c1cccc(Cl)c1)C(=O)N[C@@H](C[C@@H]1CCNC1=O)C(=O)C(=O)N1CCN(C)CC1` (stereo partly drawn) [Compound C248] yielded an IC50 of 6930 nM.
For `CC(C)C[C@H](NC(=O)OC(c1ccccc1)C(C)(C)c1cccc(Cl)c1)C(=O)N[C@@H](C[C@@H]1CCNC1=O)C(=O)CO` (stereo partly drawn) [Compound C236, 2-(3-Chlorophenyl)-2-methyl-1-phenylpropyl ((S)-1-(((S)-4-hydroxy-3-oxo-1-((S)-2-oxopyrrolidin-3-yl)butan-2-yl)amino)-4-methyl-1-oxopentan-2-yl)carbamate], the IC50 was 271 nM.
`CC(C)C[C@H](NC(=O)OC(Cc1ccccc1)c1ccccc1)C(=O)N[C@H](C=O)C[C@@H]1CCNC1=O` (stereo partly drawn) [Compound C38, 1,2-Diphenylethyl ((S)-4-methyl-1-oxo-1-(((S)-1-oxo-3-((S)-2-oxopyrrolidin-3-yl)propan-2-yl)amino)pentan-2-yl)carbamate] showed an IC50 of 16 nM.
